# Test results reported in patent US10537567B2, “Kinase inhibitors for treatment of disease” (BioAxone BioSciences, Inc., priority 2017, dated 2020).
# “Also recorded” adds a separate entry of the source. Like-named read-outs stand apart in the source and are kept apart here.
# Columns and labels:
# cellular ROCK activity = test: pMLC2 immunoblot dose-response in human trabecular meshwork cells; format: cell-based; settings: serum starved TM cells, 1 hour treatment
# Experimental: To quantify the inhibitory effect of the compounds the TM cells were serum starved and treated for 1 hour with the indicated compound concentration and then lysed and extracted for SDS-PAGE and immunoblotting for phosphorylated myosin light chain kinase 2 (pMLC2), which is a biomarker for cellular ROCK activity.
# [1] = tested on: midbrain dopaminergic neurons; test: MPTP mouse model; format: in vivo, C57BL/6 mice; settings: 10 or 100 mg/kg per day in drinking water, 14 days
# Source text: Previous studies have shown that this compound causes the overactivation of the c-Abl non-receptor tyrosine kinase in these neurons, which then phosphorylates the Parkin E3 ubiquitin ligase leading to its inactivation (Ko et al., Proc. Nat. Acad. Sci. USA; 2010; 107:16691). Additionally, this neurotoxin is also known to cause the activation of Rho kinase (ROCK) in the brain when administered to animals (Rodriguez-Perez et al., Neurobiol. Dis., 2013; 58:209).
# Different cohorts of adult C57BL/6 mice (Charles River; Wilmington, Mass.) (8 to 10 per group) receive intraperitoneal injections of either vehicle or 30 mg/kg of MPTP (Sigma; St. Louis, Mo.) dissolved in 0.9% saline for 5 consecutive days. This sub-acute/chronic treatment regimen typically leads to the death of 40 to 50% of midbrain dopaminergic neurons of the substantia nigra within 1 to 2 weeks (Meredith and Rademacher; J Parkinsons Dis.; 2011; 1(1):19).
# The cohorts are carried forward for 14 days. On the final 2 days of the treatment paradigm, mouse cohorts are subjected to behavioral testing using the accelerated rotarod on one day or grid-walking test on the other day. At completion of the final behavioral test, animals are deeply anesthetized and then perfused transcardially with 4% paraformaldehyde in phosphate buffer. Brains are removed from the craniums and post-fixed for 1-2 hours. The brains are then immersed in 30% sucrose for cryo-protection. Whole coronal sections (20-25 μm thick) through the midbrain region containing the substantia nigra are obtained for each animal and thaw mounted onto SuperFost Plus slides (Thermo-Fisher). Individual sections are reacted with rabbit anti-tyrosine hydroxylase (TH) antibody (EMD-Millipore) overnight in PBS containing 0.05% Triton X-100 and 10% normal goat serum. After washing in PBS/Triton-X-100 multiple times, sections are reacted with […] goat anti-rabbit secondary antibody. Following another round of washing, the slides are reacted with Vecta Stain Elite ABC kit for DAB-enhanced peroxidase detection (Vector Labs; Burlingame, Calif.). Following peroxidase reaction, the sections are subjected to Nissl staining to label all cell types as a counterstain. The sections are then coverslipped in permanent mounting media.
# Sections are examined by visible microscopy and photographic images captured. The number of TH positive neurons are estimated in the series of images by unbiased stereological analysis using Stereo Investigator. Numbers of TH-positive neurons per area of the substantia nigra are determined and statistical analyses performed to compare between, control untreated, MPTP/no treatment, MPTP/inhibitor treatments.
# human TM cells = test: Fibronectin immunoblot in TGFβ-stimulated TM cells; format: cell-based; settings: 2.5 ng/ml TGFβ, 0-100 μM, 24 hours
# [2] = Penetration and distribution in ocular tissues after topical instillation (LC-MS); format: in vivo, Sprague Dawley rats; settings: topical 5% solution of BA-1076, 20 minutes
# Experimental: Adult Sprague Dawley rats (Charles River Laboratories) were used for this experiment. […] One g of tissue was homogenized in 1 mL of 1×PBS. Homogenates were precipitated by pipetting 200 μL of homogenate into a tube using aseptically cut off 1000 μL pipette tips to prevent clogging. Samples are further diluted with 100 μL PBS to aid in precipitation. 900 μL of cold methanol was added to each sample and samples were vortexed for 5 to 10 seconds. Samples were placed at 4° C. for 30 to 40 min and then centrifuged at 10,000 g for 15 min at 4° C. The supernatant is collected and stored at −80° C. until analyzed.
# For the optic nerve sample, the concentration is shown per length of optic nerve (right y-axis). […] Therefore, drug is available in the retina and optic nerve for treating these tissues affected in glaucoma and other retinal diseases.
# In FIG. 14 we examined the ability of metabolite to penetrate the ocular tissues of the eye after topical instillation of a 3% solution of metabolite. In comparison with FIG. 13, that also the metabolite has adequate penetration into ocular and CNS tissue. Of particular note is the penetration in the retina and presence in the optic nerve. All compounds were given topically as eye drops to the eye of adult Sprague Dawley rats. Twenty minutes later the indicated tissues were removed and the parent compound and active metabolite were analyzed by LC/MS.
# [3] = molecular target: T1, serotonin transporter (SERT) (Homo sapiens, UniProt P31645); test: Safety screen; format: biochemical; settings: 10,000 nM API
# T1 construct: purchased DiscoverX
# T1 sequence (P31645 whole entry): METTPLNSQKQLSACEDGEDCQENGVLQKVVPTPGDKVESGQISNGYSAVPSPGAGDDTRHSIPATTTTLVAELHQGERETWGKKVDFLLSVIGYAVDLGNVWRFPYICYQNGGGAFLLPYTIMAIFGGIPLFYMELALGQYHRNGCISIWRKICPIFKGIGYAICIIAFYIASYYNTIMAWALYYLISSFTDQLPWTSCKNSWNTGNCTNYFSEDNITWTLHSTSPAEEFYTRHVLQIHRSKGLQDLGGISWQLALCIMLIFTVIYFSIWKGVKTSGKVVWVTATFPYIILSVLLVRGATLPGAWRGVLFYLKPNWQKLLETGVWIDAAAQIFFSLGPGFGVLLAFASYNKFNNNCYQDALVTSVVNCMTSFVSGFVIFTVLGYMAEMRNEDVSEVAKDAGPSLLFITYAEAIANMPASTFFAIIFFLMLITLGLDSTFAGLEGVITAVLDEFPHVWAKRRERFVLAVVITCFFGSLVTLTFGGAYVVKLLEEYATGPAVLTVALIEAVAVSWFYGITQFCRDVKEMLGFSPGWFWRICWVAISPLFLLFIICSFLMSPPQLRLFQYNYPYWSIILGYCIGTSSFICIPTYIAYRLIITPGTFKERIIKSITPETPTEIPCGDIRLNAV
# Experimental: (§1) A 468-target kinome screen and a safety screen were carried out to examine the off-target profiles of different kinase inhibitors (DiscoverX, Freemont, Calif.). The kinome screen is a binding assay where API interference of kinase domain/substrate binding is assessed as percent of control. Less than 10% binding (or >90% binding inhibition) is most biologically relevant and considered as a ‘hit’. BA-2017 only had 7 off-target hits compared to BA-1049 and Netarsudil, which both had 11 hits (Table 1) (Studirvant et al. 2016 Bioorg Med Chem Lett. 26(10):2475-2480). […] Published data for Netarsudil were with 200 times less API. […] The NET activity likely helps to decrease IOP but might increase hyperemia, while the SERT activity might have long-term safety consequences (Costagliola et al. 2004 CNS drugs 18(8): p. 475-484).
# (§2) These targets include GPCRs, transporters, ion channels, nuclear receptors, non-kinase enzymes.
# [4] = molecular target: T2, norepinephrine transporter (NET) (Homo sapiens, UniProt P23975); test: Safety screen; format: biochemical; settings: 10,000 nM API
# T2 construct: purchased DiscoverX
# T2 sequence (P23975 whole entry): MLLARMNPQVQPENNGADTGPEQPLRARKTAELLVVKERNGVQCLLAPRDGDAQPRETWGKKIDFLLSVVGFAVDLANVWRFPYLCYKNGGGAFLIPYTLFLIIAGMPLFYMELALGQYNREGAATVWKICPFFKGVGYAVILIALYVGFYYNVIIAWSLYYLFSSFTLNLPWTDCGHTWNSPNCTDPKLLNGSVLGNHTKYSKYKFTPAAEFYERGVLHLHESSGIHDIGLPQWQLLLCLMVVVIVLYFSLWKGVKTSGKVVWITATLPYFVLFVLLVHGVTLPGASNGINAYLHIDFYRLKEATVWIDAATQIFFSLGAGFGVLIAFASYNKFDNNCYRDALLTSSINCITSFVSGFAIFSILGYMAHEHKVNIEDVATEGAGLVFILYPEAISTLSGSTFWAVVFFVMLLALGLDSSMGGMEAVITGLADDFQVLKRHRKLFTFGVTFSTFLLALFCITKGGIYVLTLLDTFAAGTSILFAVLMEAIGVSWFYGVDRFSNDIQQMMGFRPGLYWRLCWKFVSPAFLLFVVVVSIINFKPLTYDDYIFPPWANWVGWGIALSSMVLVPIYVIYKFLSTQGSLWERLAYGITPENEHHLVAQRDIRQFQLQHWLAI
# Experimental: as §1, §2
# ROCK2 = ROCK2 (Homo sapiens, UniProt O75116); test: Direct filter-binding radiometric kinase assay (Eurofins) at Km ATP; format: biochemical; parameters: purchased Eurofins Testing (Dundee, Scotland, UK); settings: for ROCK1/ROCK2 (fold difference): IC50 at respective Km ATP
# ROCK2, sequence (O75116 whole entry): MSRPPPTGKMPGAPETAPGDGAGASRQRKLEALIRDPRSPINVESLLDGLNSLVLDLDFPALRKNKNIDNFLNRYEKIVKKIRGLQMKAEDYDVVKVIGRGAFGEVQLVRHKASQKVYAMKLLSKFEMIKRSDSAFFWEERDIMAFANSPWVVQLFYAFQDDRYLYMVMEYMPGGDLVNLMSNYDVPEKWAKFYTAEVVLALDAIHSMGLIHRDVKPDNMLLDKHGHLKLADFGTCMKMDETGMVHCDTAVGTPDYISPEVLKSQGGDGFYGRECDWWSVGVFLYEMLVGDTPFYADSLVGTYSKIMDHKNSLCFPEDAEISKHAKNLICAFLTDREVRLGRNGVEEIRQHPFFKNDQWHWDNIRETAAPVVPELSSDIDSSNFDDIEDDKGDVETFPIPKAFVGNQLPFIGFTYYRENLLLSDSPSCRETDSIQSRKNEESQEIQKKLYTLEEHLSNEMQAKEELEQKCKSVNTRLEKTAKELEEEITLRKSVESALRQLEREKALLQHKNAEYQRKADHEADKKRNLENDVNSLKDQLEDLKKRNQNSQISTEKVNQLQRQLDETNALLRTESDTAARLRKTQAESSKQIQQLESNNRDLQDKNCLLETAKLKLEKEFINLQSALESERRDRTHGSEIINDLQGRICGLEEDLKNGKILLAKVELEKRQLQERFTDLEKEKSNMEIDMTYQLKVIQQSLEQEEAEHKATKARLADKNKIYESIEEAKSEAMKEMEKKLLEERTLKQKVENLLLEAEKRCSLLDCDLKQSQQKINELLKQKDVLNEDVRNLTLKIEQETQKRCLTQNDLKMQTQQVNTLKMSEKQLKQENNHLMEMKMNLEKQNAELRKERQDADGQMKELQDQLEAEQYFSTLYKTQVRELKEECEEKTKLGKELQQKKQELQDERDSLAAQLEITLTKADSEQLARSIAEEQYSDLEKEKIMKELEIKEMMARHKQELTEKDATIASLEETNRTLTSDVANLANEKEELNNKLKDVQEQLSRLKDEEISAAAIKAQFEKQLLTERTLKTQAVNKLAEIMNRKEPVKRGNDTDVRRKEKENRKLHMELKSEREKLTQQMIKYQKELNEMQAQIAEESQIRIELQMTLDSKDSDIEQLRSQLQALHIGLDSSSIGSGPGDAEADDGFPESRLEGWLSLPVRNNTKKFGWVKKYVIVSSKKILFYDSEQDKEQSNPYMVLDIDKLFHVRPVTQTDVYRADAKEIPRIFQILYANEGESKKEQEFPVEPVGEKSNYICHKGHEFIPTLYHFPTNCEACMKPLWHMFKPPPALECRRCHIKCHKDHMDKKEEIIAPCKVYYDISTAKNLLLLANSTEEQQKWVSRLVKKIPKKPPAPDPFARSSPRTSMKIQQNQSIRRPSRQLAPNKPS
# Experimental: (§3) ROCK1 and ROCK2 IC50 determinations were made using ATP concentrations at the Km ATP of 70 μM and 15 μM for ROCK1 and ROCK2, respectively.
# (§4) For the data shown in Table 4, IC50 inhibition curves were performed at the respective Km for ATP for both ROCK1 and ROCK2. Performing these assays at the Km of ATP gives a better representation of the inhibitory activity. Other comparisons where differing kinases are tested at a single ATP concentration can potentially misrepresent the comparative efficacy since enzyme inhibitory activity tested below the Km for ATP of the enzyme, produces a circumstance where the enzyme is actually not constantly bound with ATP and the reaction velocity becomes sub-optimal.
# ROCK1 = ROCK1 (Homo sapiens, UniProt Q13464); test: as above; format: biochemical; parameters: purchased Eurofins Testing (Dundee, Scotland, UK)
# ROCK1, sequence (Q13464 whole entry): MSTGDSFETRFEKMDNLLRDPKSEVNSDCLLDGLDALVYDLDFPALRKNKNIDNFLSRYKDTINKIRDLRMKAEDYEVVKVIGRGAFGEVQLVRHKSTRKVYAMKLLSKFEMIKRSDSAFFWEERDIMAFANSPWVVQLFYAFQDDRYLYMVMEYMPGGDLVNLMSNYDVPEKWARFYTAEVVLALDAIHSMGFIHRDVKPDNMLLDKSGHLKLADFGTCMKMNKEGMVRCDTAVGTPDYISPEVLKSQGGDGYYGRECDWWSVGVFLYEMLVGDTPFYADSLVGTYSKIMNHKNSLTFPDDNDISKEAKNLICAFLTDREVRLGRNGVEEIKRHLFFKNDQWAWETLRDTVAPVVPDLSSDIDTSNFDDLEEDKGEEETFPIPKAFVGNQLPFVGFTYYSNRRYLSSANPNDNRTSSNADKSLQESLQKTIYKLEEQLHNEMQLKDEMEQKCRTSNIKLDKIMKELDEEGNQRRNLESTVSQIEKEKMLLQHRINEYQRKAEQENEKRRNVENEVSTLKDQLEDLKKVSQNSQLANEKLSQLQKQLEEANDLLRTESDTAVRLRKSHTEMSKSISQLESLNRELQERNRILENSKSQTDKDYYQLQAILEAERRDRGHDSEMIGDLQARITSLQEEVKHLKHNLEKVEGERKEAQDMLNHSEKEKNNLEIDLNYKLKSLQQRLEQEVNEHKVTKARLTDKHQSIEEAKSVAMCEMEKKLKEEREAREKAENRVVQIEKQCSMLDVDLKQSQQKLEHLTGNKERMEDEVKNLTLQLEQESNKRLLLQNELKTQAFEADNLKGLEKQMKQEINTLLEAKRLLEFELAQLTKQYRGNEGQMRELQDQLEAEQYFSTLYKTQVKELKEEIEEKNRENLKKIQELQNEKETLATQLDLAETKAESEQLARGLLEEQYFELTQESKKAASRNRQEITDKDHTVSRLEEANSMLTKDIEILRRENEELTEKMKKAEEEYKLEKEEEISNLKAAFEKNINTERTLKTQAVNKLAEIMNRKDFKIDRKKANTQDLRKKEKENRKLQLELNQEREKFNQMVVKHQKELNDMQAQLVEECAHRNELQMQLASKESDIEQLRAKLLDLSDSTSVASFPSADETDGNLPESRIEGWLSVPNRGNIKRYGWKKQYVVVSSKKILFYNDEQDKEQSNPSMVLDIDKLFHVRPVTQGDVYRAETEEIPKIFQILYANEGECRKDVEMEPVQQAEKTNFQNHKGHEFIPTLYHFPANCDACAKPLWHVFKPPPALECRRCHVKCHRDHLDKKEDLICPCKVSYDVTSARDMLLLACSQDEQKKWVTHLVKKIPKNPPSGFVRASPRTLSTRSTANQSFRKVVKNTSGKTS
# Experimental: as §3, §4
IC50 (ROCK2) [µM],IC50 (ROCK1) [µM],SMILES,Reversal of ROCK activation (pMLC2) (cellular ROCK activity),Cell loss in substantia nigra [1],Motor function in behavioral testing [1],Fibronectin levels (human TM cells),Penetration into ocular tissues [2],Safety Screen % inhibition SERT [3],Safety Screen % inhibition NET [4],ROCK1/ROCK2 (fold difference) (ROCK2),ROCK1/ROCK2 (fold difference) (ROCK2; listed as BA-1076*),"IC50 (ROCK1; ATP at Km, 70 μM, * = higher purity BA-1076) [µM]"
0.491,23.6,C[C@H](N)C1CCN(S(=O)(=O)c2cccc3c(=O)[nH]ccc23)CC1 [BA-2057],more potent than the parent BA-1076,prevent a significant percentage of the cell loss,improved motor function,more potent in decreasing fibronectin deposition than BA-1076,"penetrate the tissue of the eye, including the CNS tissue of the retina; also recorded: the metabolite is better able to penetrate the optic nerve",none,none,48.0,–,–
–,–,C[C@H](N)C1CCN(S(=O)(=O)c2cccc3cnccc23)CC1 [BA-1076],showed potency to reverse ROCK activation,prevent a significant percentage of the cell loss,improved motor function,Fibronectin levels decreased dose-dependently,"penetrate the tissue of the eye, including the CNS tissue of the retina",none,none,55.5,60.8,19.6
